Assay results: patent US7902240B2, “Substituted pyrazole and triazole compounds as KSP inhibitors” (Novartis AG, priority 2006, dated 2011)
“And” between values parts separate entries of the source, which are not always exact repeats. Equal entries are not always repeated.

molecular target: T1, motor domain of human KSP (Eg 5, KNSL1) (Homo sapiens, UniProt P52732); test: Assay for determining KSP activity (microtubule-stimulated ATPase, Biomol Green); format: biochemical; details: KSP motor domain 45 nM, microtubules 35 μg/mL, ATP, 1 hour RT, absorbance at 630 nm
T1 construct: KSP motor protein (i.e., the KSP motor domain); made in house
T1 sequence (P52732 18-359 limits assumed): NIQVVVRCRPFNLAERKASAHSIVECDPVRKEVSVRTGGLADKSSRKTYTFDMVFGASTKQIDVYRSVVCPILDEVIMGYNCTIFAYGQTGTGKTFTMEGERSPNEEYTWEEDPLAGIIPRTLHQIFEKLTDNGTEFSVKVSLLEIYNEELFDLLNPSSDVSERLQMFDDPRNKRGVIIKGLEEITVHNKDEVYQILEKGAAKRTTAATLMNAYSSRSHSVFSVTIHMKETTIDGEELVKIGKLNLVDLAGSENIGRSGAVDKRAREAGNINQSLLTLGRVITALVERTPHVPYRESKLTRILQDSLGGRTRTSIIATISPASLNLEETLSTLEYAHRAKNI
Source text: This example provides a representative in vitro assay for determining KSP activity in vitro. Purified microtubules obtained from bovine brain were purchased from Cytoskeleton Inc. (Denver, Colo., USA). The motor domain of human KSP (Eg 5, KNSL1) was cloned, expressed, and purified to greater than 95% homogeneity. Biomol Green was purchased from Affinity Research Products Ltd. (Matford Court, Exeter, Devon, United Kingdom). Microtubules and KSP motor protein (i.e., the KSP motor domain) were diluted in assay buffer (20 mM Tris-HCl (pH 7.5), 1 mM MgCl2, 10 mM DTT and 0.25 mg/mL BSA) to a final concentration of 35 μg/mL microtubules and 45 nM KSP. The microtubule/KSP mixture was then pre-incubated at 37° C. for 10 min to promote the binding of KSP to microtubules.
To each well of the testing plate (384-well plate) containing 1.25 μL of inhibitor or test compound in DMSO (or DMSO only in the case of controls) were added 25 μL of ATP solution (ATP diluted to a concentration of 300 μM in assay buffer) and 25 μL of the above-described microtubule/KSP solution. The plates were incubated at RT for 1 hour. Following incubation, 65 μL of Biomol Green (a malachite green-based dye that detects the release of inorganic phosphate) was added to each well. The plates were incubated for an additional 5-10 minutes then the absorbance at 630 nm was determined using a Victor II plate reader. The amount of absorbance at 630 nm corresponded to the amount of KSP activity in the samples. The IC50 of each inhibitor or test compound was then determined based on the decrease in absorbance at 630 nm at each concentration, via nonlinear regression using either XLFit for Excel or Prism data analysis software by GraphPad Software Inc.

**Q.** `C[C@H](O)C(=O)N(CC[C@H](N)CF)[C@@H](c1nc(-c2cc(Cl)cc(Cl)c2)nn1Cc1ccccc1)C(C)(C)C` [Compound 71, (S)-N-((S)-3-amino-4-fluorobutyl)-N-((R)-1-(1-benzyl-3-(3,5-dichlorophenyl)-1H-1,2,4-triazol-5-yl)-2,2-dimethylpropyl)-2-hydroxypropanamide] was tested. Which IC50 did it give?
**A.** The IC50 was over 1000 nM.

**Q.** For `C[C@H](O)C(=O)N(CC[C@@H](N)C(F)F)[C@@H](c1nc(-c2cc(F)ccc2F)nn1Cc1cccc(C#N)c1)C(C)(C)C` [Compound 77, (S)-N-((R)-3-amino-4,4-difluorobutyl)-N-((R)-1-(1-(3-cyanobenzyl)-3-(2,5-difluorophenyl)-1H-1,2,4-triazol-5-yl)-2,2-dimethylpropyl)-2-hydroxypropanamide], which IC50 is on record?
**A.** Its IC50 is > 100 nM and ≤ 1000 nM.

**Q.** Which IC50 does the source give for `C[C@H](O)C(=O)N(CC[C@@H](N)C(F)F)[C@@H](c1nc(-c2cc(F)ccc2F)nn1Cc1cccc(C(F)(F)F)c1)C(C)(C)C` [Compound 78, (S)-N-((R)-3-amino-4,4-difluorobutyl)-N-((R)-1-(3-(2,5-difluorophenyl)-1-(3-(trifluoromethyl)benzyl)-1H-1,2,4-triazol-5-yl)-2,2-dimethylpropyl)-2-hydroxypropanamide] here?
**A.** The IC50 was > 100 nM and ≤ 1000 nM.

**Q.** `Cc1cccc(Cn2nc(-c3cc(F)ccc3F)nc2[C@H](N(CC[C@H](N)C(F)F)C(=O)[C@H](C)O)C(C)(C)C)c1` [Compound 79, (S)-N-((S)-3-amino-4,4-difluorobutyl)-N-((R)-1-(3-(2,5-difluorophenyl)-1-(3-methylbenzyl)-1H-1,2,4-triazol-5-yl)-2,2-dimethylpropyl)-2-hydroxypropanamide] was tested. Which IC50 did it give?
**A.** The IC50 was at most 100 nM.

**Q.** `C[C@H](O)C(=O)N(CC[C@H](N)C(F)F)[C@@H](c1nc(-c2cc(F)ccc2F)nn1Cc1cccc(C(F)(F)F)c1)C(C)(C)C` [Compound 80, (S)-N-((S)-3-amino-4,4-difluorobutyl)-N-((R)-1-(3-(2,5-difluorophenyl)-1-(3-(trifluoromethyl)benzyl)-1H-1,2,4-triazol-5-yl)-2,2-dimethylpropyl)-2-hydroxypropanamide] was tested. Which IC50 did it give?
**A.** The IC50 was > 100 nM and ≤ 1000 nM.

**Q.** How did the IC50 turn out when `CC(C)c1cccc(Cn2nc(-c3cc(F)ccc3F)nc2[C@H](N(CC[C@H](N)C(F)F)C(=O)[C@H](C)O)C(C)(C)C)c1` [Compound 85, (S)-N-((S)-3-amino-4,4-difluorobutyl)-N-((R)-1-(3-(2,5-difluorophenyl)-1-(3-isopropylbenzyl)-1H-1,2,4-triazol-5-yl)-2,2-dimethylpropyl)-2-hydroxypropanamide] was run?
**A.** The IC50 was over 1000 nM.

**Q.** How did the IC50 turn out when `CC(C)c1cccc(Cn2nc(-c3cc(F)ccc3F)nc2[C@H](N(CC[C@@H](N)C(F)F)C(=O)[C@H](C)O)C(C)(C)C)c1` [Compound 86, (S)-N-((R)-3-amino-4,4-difluorobutyl)-N-((R)-1-(3-(2,5-difluorophenyl)-1-(3-isopropylbenzyl)-1H-1,2,4-triazol-5-yl)-2,2-dimethylpropyl)-2-hydroxypropanamide] was run?
**A.** The IC50 was over 1000 nM.
